The record followed here is patent US8383647B2, “Quinoline derivative” (Takeda Pharmaceutical Company Limited, priority 2009, dated 2013).

The target of one series is T1, HERG (Homo sapiens, UniProt Q12809).
T1 construct: host or cells: HERG.T.HEK (HEK cells, Geneticin-selected)
Briefly: Evaluation of HERG inhibitory activity (whole-cell patch clamp, HERG.T.HEK cells). It counts as cell-based. To be noted: peak tail current. The text has this: MEM medium, MEM nonessential amino acid solution, sodium pyruvate solution and G418 sulfate solution (Geneticin) were purchased from Invitrogen Corporation (Carlsbad, Calif.). Bovine serum albumin (BSA, Fatty Acid Free) was a product of Wako Pure Chemical Industries, Ltd. (Osaka, Japan). Fetal bovine serum (FCS) was a product of Trau Scientific Ltd. (Melbourne, Australia).
As HERG expression cell HERG.T.HEK, the cell obtained from Wisconsin ALUMNI Research Foundation was used. HERG.T.HEK was maintained and passaged at 37° C. in the presence of 5% CO2 using an MEM medium containing 10% FCS, 1 mM MEM nonessential amino acid, 1 mM sodium pyruvate and 500 μg/ml Geneticin.
80-90% confluent cells were collected by a trypsin treatment and plated on an IVF dish (Falcon, Franklin Lakes, N.J.). After 2-3 hr, cells were adhered to a glass electrode (resistance value 2-3 MΩ) filled with an electrode internal fluid (7 mM NaCl, 130 mM KCl, 1 mM MgCl2, 5 mM HEPES, 5 mM EGTA, 5 mM ATP-Na: pH 7.2) while perfusing with an extracellular fluid (137 mM NaCl, 4 mM KCl, 1 mM MgCl2, 1.8 mM CaCl2, 10 mM HEPES, 11 mM dextrose: pH 7.4), using a patch clamp amplifier AXOPATCH 200B (Axon instruments, Foster City, Calif.), whereby formation of whole-cell configuration and stimulation by voltage clamp protocol were performed (holding potential −75 mV, primary voltage 10 mV: 0.5 sec, secondary voltage −40 mV: 0.5 sec, stimulation frequency 5 sec (Example 31 and Example 50) or 10 sec (Comparative Example 1 and Comparative Example 2). A preliminary stimulation was applied and the HERG electric current value (peak tail current) was measured when the electric current waveform was stabilized.
For measurement of the HERG electric current with addition of the test compound, the cells were first perfused with the extracellular fluid and, when the waveform was stabilized, the cells were perfused with an extracellular fluid containing 10 μm of a test compound. When the electric current waveform was stabilized under respective perfuse conditions, the HERG electric current was measured.
The HERG electric current inhibitory rate (%) of the test compound was calculated with the HERG electric current value without addition of the test compound as 100%.

The next series has as its system HepG2 cells. Briefly: Evaluation of PLsis (NBD-PE uptake). It counts as cell-based. The conditions noted are these: 24 hr exposure, relative to 10 μM Amiodarone, maximum value per unit concentration. As for the experimental part:
DMEM medium, L-glutamine, penicillin-streptomycin, pyruvic acid, and N-(7-nitrobenz-2-oxa-1,3-diazol-4-yl)-1,2-hexadecanoyl-sn-glycero-3-phosphoethanolamine triethylammonium salt (NBD-PE) were purchased from Invitrogen Corporation. As bovine serum albumin (BSA), a product of Thermo Trace Ltd. (Melbourne, Australia) was used, and as Amiodarone, a product of ICN (Costa Mesa, Calif.) was used. A test compound was used in the form of a 10 mM DMSO solution.
FBS was added at a final concentration of 5 vol % to DMEM medium supplemented with L-glutamine, pyruvic acid and penicillin-streptomycin and subjected to the experiment. Culture was performed using 5% carbon dioxide gas-95% air as a gas phase in a CO2 incubator at 37° C. HepG2 cells were suspended in a culture medium at 50×10^4 cells/mL, plated in a 96 well plate at 50 μL/well and precultured for 24 hr. After preculture, the culture medium was removed, a culture medium containing 60 μm NBD-PE was added at 50 μL/well, and a culture medium containing 0, 6 μM or 20 μM test compounds were each added at 50 μL/well to HepG2 cells, and the cells were cultured for 24 hr. As a positive control, Amiodarone was used at a final concentration of 10 μM.
After exposure to the test compound for 24 hr, the fluorescence intensity (Ex. 485 nm, Em. 538 nm) of NBD-PE uptaken by the cells was measured by a fluorometer. The measurement value with addition of 0 μM test compound solution was subtracted as a blank, a relative value to the measurement value with addition of 10 μm Amiodarone was calculated, and the maximum value per unit concentration of the test compound was obtained as a phospholipidosis (PLsis) induction potential.

The target of a further series is human SLC-1 (Homo sapiens, UniProt Q99705). The experiment in a line: MCH receptor antagonistic activity (inhibitory activity, Experimental Example 1). It counts as biochemical.
Chain of human SLC-1 (Q99705 whole entry): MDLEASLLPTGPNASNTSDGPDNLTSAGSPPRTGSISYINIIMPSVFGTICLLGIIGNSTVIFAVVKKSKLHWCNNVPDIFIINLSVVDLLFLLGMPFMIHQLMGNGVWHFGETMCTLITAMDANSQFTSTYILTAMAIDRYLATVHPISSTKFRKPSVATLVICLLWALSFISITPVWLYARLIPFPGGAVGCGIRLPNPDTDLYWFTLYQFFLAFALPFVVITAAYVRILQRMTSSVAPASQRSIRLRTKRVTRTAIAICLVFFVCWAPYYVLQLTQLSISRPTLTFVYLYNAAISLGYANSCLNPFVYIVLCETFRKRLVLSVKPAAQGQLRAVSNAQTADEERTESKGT
A further series concerns the target rat SLC-1 (Rattus norvegicus, UniProt P97639). Described as above. In kind it is biochemical.
Series [1] relates to Male F344/Jcl rats fed on high-fat diet. The experiment in a line: Evaluation of anorectic effect using male F344/Jcl rats fed on high-fat diet. In kind it is in vivo. The conditions noted are these: 10 mg/kg by gavage, two administrations; food intake from initial administration to 48 hr; relative to control group; obese rat model. As for the experimental part: Male F344/Jcl rats (42-week-old) loaded with a high-fat diet (Research Diets: D12451) from 5 weeks of age were used. From 2 weeks before the start of experiment, the rats were independently raised, a powder high-fat diet (Research Diets: D12451M) was given, tap water (0.5 mL) was administered for acclimation, and thereby the rats were habituated. The food intake from 14:00 the day before the start of experiment to 9:00 the next day was measured, and the rats were grouped based on the food intake and the body weight of the previous day as indices. On the day of the start of experiment and the next day at 16:00, 0.5% methylcellulose solution was administered by gavage to the control group, and 0.5% methylcellulose suspension (10 mg/kg) of the compound was administered by gavage to the compound administration group at 2 mL/kg (6 per group for both control group and compound administration group). The food intake from the initial administration to 48 hr later was measured. The food intake inhibition rate of each compound administration group to the control group was calculated.

“And” between values parts separate entries of the source, which are not always exact repeats. Identical values can stand only once. Marks after values point to notes of the source that are not given here.

T1 sequence (Q12809 whole entry): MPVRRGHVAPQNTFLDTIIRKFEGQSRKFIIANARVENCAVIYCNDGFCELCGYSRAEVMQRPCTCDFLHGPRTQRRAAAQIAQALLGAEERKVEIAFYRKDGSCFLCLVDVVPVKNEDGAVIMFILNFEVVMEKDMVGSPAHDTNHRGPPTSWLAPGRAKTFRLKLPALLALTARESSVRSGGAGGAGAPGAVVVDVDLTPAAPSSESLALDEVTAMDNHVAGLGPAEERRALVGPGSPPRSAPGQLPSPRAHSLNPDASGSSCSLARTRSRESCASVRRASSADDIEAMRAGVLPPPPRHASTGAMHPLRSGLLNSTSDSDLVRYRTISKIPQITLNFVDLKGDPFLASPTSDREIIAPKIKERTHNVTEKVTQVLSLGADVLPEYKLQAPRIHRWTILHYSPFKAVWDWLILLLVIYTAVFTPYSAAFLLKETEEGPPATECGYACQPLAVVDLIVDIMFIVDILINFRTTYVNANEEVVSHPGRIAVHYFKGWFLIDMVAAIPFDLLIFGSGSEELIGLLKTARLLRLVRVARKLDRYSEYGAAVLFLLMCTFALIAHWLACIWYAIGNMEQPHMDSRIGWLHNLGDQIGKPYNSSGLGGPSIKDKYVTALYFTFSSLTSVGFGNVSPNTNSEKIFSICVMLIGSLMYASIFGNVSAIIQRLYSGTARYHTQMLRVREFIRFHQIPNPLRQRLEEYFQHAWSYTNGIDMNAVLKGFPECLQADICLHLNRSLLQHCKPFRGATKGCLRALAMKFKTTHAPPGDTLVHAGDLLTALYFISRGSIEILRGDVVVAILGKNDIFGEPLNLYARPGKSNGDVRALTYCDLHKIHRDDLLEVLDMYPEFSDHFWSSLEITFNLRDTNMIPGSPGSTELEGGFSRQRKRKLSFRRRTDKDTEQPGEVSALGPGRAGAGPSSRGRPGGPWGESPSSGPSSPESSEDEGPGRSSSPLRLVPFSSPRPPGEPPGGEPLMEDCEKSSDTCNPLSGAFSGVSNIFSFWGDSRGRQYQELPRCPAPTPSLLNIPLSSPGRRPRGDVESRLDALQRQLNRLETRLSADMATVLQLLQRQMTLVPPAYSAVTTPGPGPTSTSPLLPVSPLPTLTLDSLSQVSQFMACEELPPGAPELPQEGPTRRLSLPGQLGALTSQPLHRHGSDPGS
Chain of rat SLC-1 (P97639 whole entry): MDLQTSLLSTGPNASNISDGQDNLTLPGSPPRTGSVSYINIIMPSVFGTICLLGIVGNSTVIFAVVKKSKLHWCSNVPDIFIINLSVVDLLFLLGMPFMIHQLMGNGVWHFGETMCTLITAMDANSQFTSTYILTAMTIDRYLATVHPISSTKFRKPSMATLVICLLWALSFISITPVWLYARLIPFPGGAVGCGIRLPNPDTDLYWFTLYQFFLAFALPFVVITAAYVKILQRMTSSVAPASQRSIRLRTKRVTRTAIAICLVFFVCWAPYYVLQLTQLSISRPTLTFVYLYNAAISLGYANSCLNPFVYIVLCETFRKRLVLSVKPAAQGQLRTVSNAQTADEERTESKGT

As to `Cc1c(NC(=O)c2ccc(OCC3CC3)cc2)ccc2cc(CNC3CCC(C)(O)CC3)cnc12` (stereo not drawn) [Com. Ex. 2, 4-(cyclopropylmethoxy)-N-[3-[[(trans-4-hydroxy-4-methylcyclohexyl)amino]methyl]-8-methylquinolin-7-yl]benzamide, reference compound], the “HERG electric current inhibitory rate (%) of 10 μM compound” value on HERG worked out at 44.9%. Further, the PLsis induction potential in the series on HepG2 cells is listed as 27.8.
For `Cc1c(NC(=O)c2ccc(OC[C@@H]3CCCO3)cc2)ccc2cc(CNC3CCOCC3)cnc12` [Example 31, N-{8-methyl-3-[(tetrahydro-2H-pyran-4-ylamino)methyl]quinolin-7-yl}-4-[(2S)-tetrahydrofuran-2-ylmethoxy]benzamide], the melting point is 158 to 159 °C. Also, 3.1 nM corresponded to half-maximal inhibition at human SLC-1 (IC50). The IC50 at rat SLC-1 is 4.3 nM. Moreover, the “food intake inhibition rate (%)” value in series [1] is on record as 24.8*** %. Moreover, the “HERG electric current inhibitory rate (%) of 10 μM compound” value at HERG amounted to 9.8%. The PLsis induction potential in the series on HepG2 cells was 1.7.
As for `Cc1c(NC(=O)c2ccc(OC[C@@H]3CCCO3)cc2)ccc2cc(CN[C@H]3CC[C@](C)(O)CC3)cnc12` [Example 50, N-(3-{[(trans-4-hydroxy-4-methylcyclohexyl)amino]methyl}-8-methylquinolin-7-yl)-4-[(2S)-tetrahydrofuran-2-ylmethoxy]benzamide], the melting point was 165 °C and 169 °C. In addition, 2.9 nM corresponded to half-maximal inhibition on human SLC-1 (IC50). The same molecule yielded an IC50 against rat SLC-1 of 3.9 nM. In addition, in series [1], the “food intake inhibition rate (%)” value was 30.3*** %. Moreover, the “HERG electric current inhibitory rate (%) of 10 μM compound” value on HERG was 2.1%. Further, in the series with HepG2 cells, the PLsis induction potential came to 1.4.

By IC50 is commonly meant the concentration needed to halve the response being measured. A high value points to weaker potency in that assay. In general, melting point refers to the temperature, or range, at which the solid turns liquid.
